Data from US8188102B2, “Amide derivative for inhibiting the growth of cancer cells” (Hanmi Holdings Co., Ltd., priority 2007, dated 2012).

What was measured:
[1] = tested on: SK-Br3 breast cancer cell line; assay: Cancer cell growth inhibition, SK-Br3 (SRB); conditions: Homo sapiens, SK-BR-3, 72 h, read-out: ID50 (nM) SK-Br3
[2] = tested on: A431 skin cancer cell line; assay: Cancer cell growth inhibition, A431 (SRB); conditions: Homo sapiens, A-431, 72 h, read-out: ID50 (nM) A431

SMILES	IC50 [1]	IC50 [2]
COc1cc2ncnc(Nc3ccc(F)c(Cl)c3F)c2cc1O[C@H]1CCN(C(=O)/C=C/CN2CCOCC2)C1 [Example 94, (E)-1-((3S)-3-(4-(3-chloro-2,4-difluorophenylamino)-7-methoxyquinazolin-6-yloxy)pyrrolidin-1-yl)-4-morpholinobut-2-en-1-one]	123 nM	85 nM
C=C(CN1CCCCC1)C(=O)N1CC(Oc2cc3c(Nc4ccc(F)c(Cl)c4F)ncnc3cc2OC)C1 [Example 108, 1-(3-(4-(3-chloro-2,4-difluorophenylamino)-7-methoxyquinazolin-6-yloxy)azetidin-1-yl)-2-(piperidin-1-ylmethyl)prop-2-en-1-one]	6 nM	9.1 nM
C=CC(=O)N1CC(Oc2cc3c(Nc4ccc(F)c(Cl)c4F)ncnc3cc2O)C1 [Example 115, 1-(3-(4-(3-chloro-2,4-difluorophenylamino)-7-hydroxyquinazolin-6-yloxy)azetidin-1-yl)prop-2-en-1-one]	93 nM	381 nM
COc1cc2ncnc(Nc3cccc(Cl)c3F)c2cc1OC1CN(C(=O)/C=C/CN(C)C)C1 [Example 102, (E)-1-(3-(4-(3-chloro-2-fluorophenylamino)-7-methoxyquinazolin-6-yloxy)azetidin-1-yl)-4-(dimethylamino)but-2-en-1-one]	8 nM	9 nM
CNC(=O)/C=C/C(=O)N1CCC(Oc2cc3c(Nc4ccc(F)c(Cl)c4F)ncnc3cc2OC)CC1 [Example 82, (E)-4-(4-(4-(3-chloro-2,4-difluorophenylamino)-7-methoxyquinazolin-6-yloxy)piperidin-1-yl)-N-methyl-4-oxobut-2-enamide]	134 nM	48 nM
C=CC(=O)N1CCC(Oc2cc3c(Nc4ccc(Cl)c(O)c4)ncnc3cc2OC)CC1 [Example 51, 1-(4-(4-(4-chloro-3-hydroxyphenylamino)-7-methoxyquinazolin-6-yloxy)piperidin-1-yl)pro-2-pen-1-one]	19 nM	105 nM
C=CC(=O)N1CCC(Oc2cc3c(Nc4ccc(C)c(C)c4)ncnc3cc2OC)CC1 [Example 47, 1-(4-(4-(3,4-dimethylphenylamino)-7-methoxyquinazolin-6-yloxy)piperidin-1-yl)pro-2-pen-1-one]	10 nM	19 nM
COc1cc2ncnc(Nc3ccc(F)c(Cl)c3F)c2cc1OC1CCN(C(=O)/C=C\CN(C)C)CC1 [Example 113, (Z)-1-(4-(4-(3-chloro-2,4-difluorophenylamino)-7-methoxyquinazolin-6-yloxy)piperidin-1-yl)-4-(dimethylamino)but-2-en-1-one]	17 nM	6 nM
C=C(C)C(=O)N1CC(Oc2cc3c(Nc4ccc(F)c(Cl)c4F)ncnc3cc2OC)C1 [Example 29, 1-(3-(4-(3-chloro-2,4-difluorophenylamino)-7-methoxyquinazolin-6-yloxy)azetidin-1-yl)-2-methylpro-2-pen-1-one]	19 nM	29 nM
COc1cc2ncnc(Nc3ccc(F)c(Cl)c3F)c2cc1O[C@H]1CCN(C(=O)C#CCCN2CCN(C)CC2)C1 [Example 4, 1-((3S)-3-(4-(3-chloro-2,4-difluorophenylamino)-7-methoxyquinazolin-6-yloxy)pyrrolidin-1-yl)-5-(4-methylpiperazin-1-yl)pent-2-yn-1-one]	604 nM	53 nM
C=CC(=O)N1CCC(Oc2cc3c(Nc4ccc(O)c(Cl)c4)ncnc3cc2OC)CC1 [Example 78, 1-(4-(4-(3-chloro-4-hydroxyphenylamino)-7-methoxyquinazolin-6-yloxy)piperidin-1-yl)pro-2-pen-1-one]	65 nM	109 nM
C=C(CN(C)C)C(=O)N1CCC(Oc2cc3c(Nc4ccc(Cl)c(Cl)c4F)ncnc3cc2OC)CC1 [Example 111, 1-(4-(4-(3,4-dichloro-2-fluorophenylamino)-7-methoxyquinazolin-6-yloxy)piperidin-1-yl)-2-((dimethylamino)methyl)prop-2-en-1-one]	6 nM	4 nM
C=CC(=O)N1CCC(Oc2cc3c(Nc4ccc(Oc5ccccc5)cc4)ncnc3cc2OC)CC1 [Example 48, 1-(4-(7-methoxy-4-(4-phenoxyphenylamino)quinazolin-6-yloxy)piperidin-1-yl)pro-2-pen-1-one]	8 nM	> 1000 nM
C=CC(=O)N1CCC(Oc2cc3c(Nc4ccc(O)cc4Cl)ncnc3cc2OC)CC1 [Example 52, 1-(4-(4-(2-chloro-4-hydroxyphenylamino)-7-methoxyquinazolin-6-yloxy)piperidin-1-yl)pro-2-pen-1-one]	30 nM	176 nM
C=CC(=O)N1CCC(Oc2cc3c(Nc4cccc(S)c4)ncnc3cc2OC)CC1 [Example 76, 1-(4-(4-(3-mercaptophenylamino)-7-methoxyquinazolin-6-yloxy)piperidin-1-yl)pro-2-pen-1-one]	100 nM	300 nM
C=CC(=O)N1CC(Oc2cc3c(Nc4ccc(F)c(Cl)c4F)ncnc3cc2OCCOC)C1 [Example 116, 1-(3-(4-(3-chloro-2,4-difluorophenylamino)-7-(2-methoxyethoxy)quinazolin-6-yloxy)azetidin-1-yl)prop-2-en-1-one]	327 nM	883 nM
CC#CC(=O)N1CCC(Oc2cc3c(Nc4ccc(F)c(Cl)c4F)ncnc3cc2OC)CC1 [Example 80, 1-(4-(4-(3-chloro-2,4-difluorophenylamino)-7-methoxyquinazolin-6-yloxy)piperidin-1-yl)but-2-yn-1-one]	268 nM	190 nM
C=CC(=O)N1CC[C@@H](Oc2cc3c(Nc4ccc(F)c(Cl)c4)ncnc3cc2OC)C1 [Example 14]	128 nM	–
C=CC(=O)N1CC[C@H](Oc2cc3c(Nc4ccc(F)c(Cl)c4)ncnc3cc2OC)C1 [Example 13, 1-((3S)-3-(4-(3-chloro-4-fluorophenylamino)-7-methoxyquinazolin-6-yloxy)pyrrolidin-1-yl)pro-2-pen-1-one]	17 nM	–
COc1cc2ncnc(Nc3ccc(F)c(Cl)c3F)c2cc1OC1CCN(C(=O)/C=C/CN(C)C)CC1 [Example 98, (E)-1-(4-(4-(3-chloro-2,4-difluorophenylamino)-7-methoxyquinazolin-6-yloxy)piperidin-1-yl)-4-(dimethylamino)but-2-en-1-one]	45 nM	–

Stronger by IC50 [1], values ahead:

IC50 [1]	IC50 [2]	SMILES
5 nM	12 nM	C=CC(=O)N1CC[C@H](Oc2cc3c(Nc4ccc(F)c(Cl)c4F)ncnc3cc2OC)C[C@H]1C(=O)NCCC [Example 123, (2S,4S)-1-acryloyl-4-(4-(3-chloro-2,4-difluorophenylamino)-7-methoxyquinazolin-6-yloxy)-N-propylpiperidin-2-carboxamide]
3.5 nM	2.7 nM	C=C(CN(C)C)C(=O)N1CCC(Oc2cc3c(Nc4ccc(F)c(Cl)c4F)ncnc3cc2OC)CC1 [Example 109, 1-(4-(4-(3-chloro-2,4-difluorophenylamino)-7-methoxyquinazolin-6-yloxy)piperidin-1-yl)-2-((dimethylamino)methyl)prop-2-en-1-one]
2.5 nM	2.2 nM	C=CC(=O)N1CC[C@H](Oc2cc3c(Nc4ccc(F)c(Cl)c4F)ncnc3cc2OC)C[C@H]1C(=O)NC [Example 121, (2S,4S)-1-acryloyl-4-(4-(3-chloro-2,4-difluorophenylamino)-7-methoxyquinazolin-6-yloxy)-N-methylpiperidin-2-carboxamide]
2.1 nM	4.6 nM	C=CC(=O)N1CCC(Oc2cc3c(Nc4ccc(Cl)cc4)ncnc3cc2OC)CC1 [Example 70, 1-(4-(4-(4-chlorophenylamino)-7-methoxyquinazolin-6-yloxy)piperidin-1-yl)pro-2-pen-1-one]
2 nM	10 nM	C=CC(=O)N1CCC(Oc2cc3c(Nc4ccc(OCc5cccc(F)c5)c(Cl)c4)ncnc3cc2OC)CC1 [Example 54, 1-(4-(4-(3-chloro-4-(3-fluorobenzyloxy)phenylamino)-7-methoxyquinazolin-6-yloxy)piperidin-1-yl)pro-2-pen-1-one]
2 nM	–	C=CC(=O)N1CCC(Oc2cc3c(Nc4ccc(Cl)c(Cl)c4)ncnc3cc2OC)CC1 [Example 44, 1-(4-(4-(3,4-dichlorophenylamino)-7-methoxyquinazolin-6-yloxy)piperidin-1-yl)pro-2-pen-1-one]
2 nM	–	C=CC(=O)N1CCC(Oc2cc3c(Nc4ccc(OCc5ccccn5)c(Cl)c4)ncnc3cc2OC)CC1 [Example 55, 1-(4-(4-(3-chloro-4-(pyridin-2-ylmethoxy)phenylamino)-7-methoxyquinazolin-6-yloxy)piperidin-1-yl)pro-2-pen-1-one]
0.8 nM	15 nM	COc1cc2ncnc(Nc3ccc(F)c(Cl)c3F)c2cc1OC1CN(C(=O)/C=C\CN(C)C)C1 [Example 112, (Z)-1-(3-(4-(3-chloro-2,4-difluorophenylamino)-7-methoxyquinazolin-6-yloxy)azetidin-1-yl)-4-(dimethylamino)but-2-en-1-one]
0.7 nM	2.4 nM	C=C(CN1CCCCC1)C(=O)N1CC(Oc2cc3c(Nc4cccc(Cl)c4F)ncnc3cc2OC)C1 [Example 107, 1-(3-(4-(3-chloro-2-fluorophenylamino)-7-methoxyquinazolin-6-yloxy)azetidin-1-yl)-2-(piperidin-1-ylmethyl)prop-2-en-1-one]
0.5 nM	1 nM	C=C(CN1CCN(C)CC1)C(=O)N1CC(Oc2cc3c(Nc4ccc(F)c(Cl)c4F)ncnc3cc2OC)C1 [Example 106, 1-(3-(4-(3-chloro-2,4-difluorophenylamino)-7-methoxyquinazolin-6-yloxy)azetidin-1-yl)-2-((4-methylpiperazin-1-yl)methyl)prop-2-en-1-one]
0.3 nM	1.1 nM	C=CC(=O)N1CC[C@@H](Oc2cc3c(Nc4ccc(Br)cc4F)ncnc3cc2OC)C[C@@H]1C(N)=O [Example 140, (2R,4R)-1-acryloyl-4-(4-(4-bromo-2-fluorophenylamino)-7-methoxyquinazolin-6-yloxy)piperidin-2-carboxamide]
